Marks after values point to notes of the source that are not given here.
Tests used:
Assay type in all cases: in vivo
[1] = test system: Erysiphe graminis f. sp. tritici; assay: Test A: wheat powdery mildew, test suspension sprayed on wheat seedlings, disease rating; conditions: for pest or weed control at 200 ppm: Blumeria graminis, 192 h
[2] = test system: Septoria nodorum; assay: Test D: wheat glume blotch, test suspension sprayed on wheat seedlings, disease rating; conditions: for pest or weed control at 200 ppm: Parastagonospora nodorum, 216 h
[3] = test system: Septoria tritici; assay: Test E: wheat leaf blotch, test suspension sprayed on wheat seedlings, disease rating; conditions: 200 ppm test suspension; for pest or weed control at 200 ppm: Zymoseptoria tritici, 504 h;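 as to all read-outs here: 200 ppm unless marked * meaning 40 ppm or ** meaning 10 ppm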
[4] = test system: Phytophthora infestans; assay: whole plant or invertebrate; conditions: for pest or weed control at 200 ppm: Phytophthora infestans, in Solanum lycopersicum, 120 h, read-out: Test J disease control rating
[5] = test system: Pythium aphanidermatum; assay: Test L: bluegrass pythium blight, test suspension sprayed on bluegrass seedlings, disease rating; conditions: for pest or weed control at 200 ppm: Pythium aphanidermatum, 120 h;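 as to all read-outs here: 200 ppm unless marked * meaning 40 ppm or ** meaning 10 ppm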
[6] = test system: Puccinia recondite f sp. tritici; assay: Test B: wheat leaf rust, test suspension sprayed on wheat seedlings, disease rating; conditions: for pest or weed control at 200 ppm: Puccinia, 192 h;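 as to all read-outs here: 200 ppm unless marked * meaning 40 ppm or ** meaning 10 ppm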
[7] = test system: Fusarium graminearum; assay: whole plant or invertebrate; conditions: for pest or weed control at 200 ppm: Fusarium graminearum, in Triticum aestivum, 192 h, read-out: Test C disease control rating
[8] = 200 ppm test suspension, 100 = 100% disease control, 0 = no control

Compound | Test A disease control rating ([1]; 40 ppm test suspension (*)) | Test B disease control rating ([6]; 40 ppm test suspension (*)) | Test C disease control rating ([7]; 40 ppm test suspension (*)) | Test D disease control rating ([2]; 40 ppm test suspension (*)) | Test J disease control rating ([4]; 40 ppm test suspension (*)) | Test L disease control rating ([5]; 40 ppm test suspension (*)) | other results
CC(C)Nc1nccc(-c2c(-c3ccccc3)nn3c2CCCC3)n1 [Compound 26, N-(1-methylethyl)-4-(4,5,6,7-tetrahydro-2-phenylpyrazolo[1,5-a]pyridin-3-yl)-2-pyrimidinamine] | – | – | – | – | – | – | pest or weed control at 200 ppm [1, 8]: 91%; pest or weed control at 200 ppm ([2]; 200 ppm test suspension): 99%; pest or weed control at 200 ppm [3]: 96%; pest or weed control at 200 ppm [4]: 91%; pest or weed control at 200 ppm ([5]; 200 ppm test suspension): 100%
CC(=O)Nc1nccc(-c2c(-c3ccc(F)cc3)nn3c2CCCC3)n1 [Compound 52, N-[4-[2-(4-fluorophenyl)-4,5,6,7-tetrahydropyrazolo[1,5-a]pyridin-3-yl]-2-pyrimidinyl]acetamide] | – | – | – | – | – | – | pest or weed control at 200 ppm [1, 8]: 0%; pest or weed control at 200 ppm ([6]; 200 ppm test suspension): 100%; pest or weed control at 200 ppm [7]: 99%; pest or weed control at 200 ppm ([2]; 200 ppm test suspension): 97%; pest or weed control at 200 ppm [3]: 98%; pest or weed control at 200 ppm [4]: 95%; pest or weed control at 200 ppm ([5]; 200 ppm test suspension): 100%
C[C@@H](CO)Nc1nccc(-c2c(-c3ccccc3)nn3c2CCCC3)n1 [Compound 54, (2S)-2-[[4-(4,5,6,7-tetrahydro-2-phenylpyrazolo[1,5-c]pyridine-3-yl)-2-pyrimidinyl]amino]-1-propanol] | 0* % | 98* % | 95* % | 60* % | 99* % | 100* % | –
COCC(C)Nc1nccc(-c2c(-c3ccc(F)cc3F)nn3c2CSC3)n1 (centres unmarked) [Compound 83, 4-[2-(2,4-difluorophenyl)-4H,6H-pyrazolo[1,5-c]thiazol-3-yl]-N-(2-methoxy-1-methylethyl)-2-pyrimidinamine] | – | – | – | – | – | – | pest or weed control at 200 ppm [1, 8]: 0%; pest or weed control at 200 ppm ([6]; 200 ppm test suspension): 0%; pest or weed control at 200 ppm [7]: 0%; pest or weed control at 200 ppm ([2]; 200 ppm test suspension): 60%; pest or weed control at 200 ppm [3]: 67%; pest or weed control at 200 ppm [4]: 93%; pest or weed control at 200 ppm ([5]; 200 ppm test suspension): 99%
COc1nccc(-c2c(-c3ccc(F)cc3)nn3c2CCCC3)n1 [Compound 105] | – | – | – | – | – | – | Test A disease control rating [1, 8]: 0%; Test B disease control rating ([6]; 200 ppm test suspension): 94%; Test C disease control rating ([7]; 200 ppm test suspension): 94%; Test D disease control rating ([2]; 200 ppm test suspension): 78%; Test E disease control rating [3]: 100%; Test J disease control rating ([4]; 200 ppm test suspension): 73%; Test L disease control rating ([5]; 200 ppm test suspension): 0%
Fc1ccc(-c2nn3c(c2-c2ccnc(NC4CC4)n2)COCC3)cc1 [Compound 109, N-cyclopropyl-4-[2-(4-fluorophenyl)-6,7-dihydro-4H-pyrazolo[5,1-c][1,4]oxazin-3-yl]-2-pyrimidinamine] | – | – | – | – | – | – | pest or weed control at 200 ppm [1, 8]: 92%; pest or weed control at 200 ppm [7]: 100%; pest or weed control at 200 ppm ([2]; 200 ppm test suspension): 0%; pest or weed control at 200 ppm [3]: 100%; pest or weed control at 200 ppm [4]: 99%; pest or weed control at 200 ppm ([5]; 200 ppm test suspension): 100%
CC(C)Nc1nccc(-c2c(-c3ccc(Cl)cc3)nn3c2CCCC3)n1 [compound 21] | – | – | – | – | – | – | Test A disease control rating [1, 8]: 96%; Test D disease control rating ([2]; 200 ppm test suspension): 82%; Test E disease control rating [3]: 100%; Test J disease control rating ([4]; 200 ppm test suspension): 52%; Test L disease control rating ([5]; 200 ppm test suspension): 76%
Clc1ccc(-c2nn3c(c2-c2ccnc(NC4CC4)n2)CCCC3)cc1 [compound 22] | – | – | – | – | – | – | Test A disease control rating [1, 8]: 50%; Test D disease control rating ([2]; 200 ppm test suspension): 87%; Test E disease control rating [3]: 94%; Test J disease control rating ([4]; 200 ppm test suspension): 83%; Test L disease control rating ([5]; 200 ppm test suspension): 77%
CN(C)Nc1nccc(-c2c(-c3ccc(F)cc3)nn3c2CCCC3)n1 [compound 23] | – | – | – | – | – | – | Test A disease control rating [1, 8]: 99%; Test D disease control rating ([2]; 200 ppm test suspension): 94%; Test E disease control rating [3]: 98%; Test J disease control rating ([4]; 200 ppm test suspension): 71%; Test L disease control rating ([5]; 200 ppm test suspension): 0%
OCCNc1nccc(-c2c(-c3ccc(F)cc3)nn3c2CCCC3)n1 [compound 25] | – | – | – | – | – | – | Test A disease control rating [1, 8]: 96%; Test D disease control rating ([2]; 200 ppm test suspension): 87%; Test E disease control rating [3]: 97%; Test J disease control rating ([4]; 200 ppm test suspension): 83%; Test L disease control rating ([5]; 200 ppm test suspension): 100%
Fc1ccc(-c2nn3c(c2-c2ccnc(NC4CC4)n2)CCCC3)c(F)c1 [compound 28] | – | – | – | – | – | – | Test A disease control rating [1, 8]: 94%; Test D disease control rating ([2]; 200 ppm test suspension): 92%; Test E disease control rating [3]: 96%; Test J disease control rating ([4]; 200 ppm test suspension): 95%; Test L disease control rating ([5]; 200 ppm test suspension): 98%
Cc1cc(-c2nn3c(c2-c2ccnc(NC(C)CO)n2)CCCC3)ccc1F (centres unmarked) [compound 32] | 0* % | 74* % | 0* % | 0* % | 98* % | 99* % | –
Cc1cc(-c2nn3c(c2-c2ccnc(NC(C)C)n2)CCCC3)ccc1F [compound 33] | 0* % | 77* % | 98* % | 94* % | 95* % | 97* % | –
Cc1cc(-c2nn3c(c2-c2ccnc(NC[Si](C)(C)C)n2)CCCC3)ccc1F [compound 50] | 0* % | 0* % | 92* % | 0* % | 31* % | 68* % | –
COCC(C)Nc1nccc(-c2c(-c3ccccc3)nn3c2CCCC3)n1 (centres unmarked) [compound 53] | 0* % | 98* % | 99* % | 84* % | 99* % | 100* % | –
C[Si](C)(C)CNc1nccc(-c2c(-c3ccccc3)nn3c2CCCC3)n1 [compound 55] | 0* % | 91* % | 99* % | 44* % | 17* % | 0* % | –
Cc1cc(-c2nn3c(c2-c2ccnc(NC4CC4)n2)CCCC3)ccc1F [compound 56] | 86* % | 0* % | 100* % | 99* % | 93* % | 100* % | –
C[C@H](CO)Nc1nccc(-c2c(-c3ccc(F)cc3)nn3c2CCCC3)n1 [compound 57] | 0* % | 86* % | 0* % | 0* % | 99* % | 100* % | –
C#CCNc1nccc(-c2c(-c3ccc(F)cc3)nn3c2CCCC3)n1 [compound 58] | 0* % | 0* % | 100* % | 82* % | 26* % | 62* % | –
C#CCNc1nccc(-c2c(-c3ccccc3)nn3c2CCCC3)n1 [compound 59] | 0* % | 92* % | 99* % | 94* % | 71* % | – | Test L disease control rating ([5]; 10 ppm test suspension (**)): 67** %
COCC(C)Nc1nccc(-c2c(-c3ccc(F)c(C)c3)nn3c2CCCC3)n1 (centres unmarked) [compound 62] | 78* % | 80* % | 98* % | 60* % | 96* % | 99* % | –
CC(C)N(O)c1nccc(-c2c(-c3ccc(F)cc3)nn3c2CS(=O)(=O)CC3)n1 [compound 115] | 0* % | 63* % | 0* % | 69* % | 73* % | – | –

Reference: patent US8288375B2, “Fungicidal bicyclic pyrazoles” (E.I. du Pont de Nemours and Company, priority 2007, dated 2012)
